In publication PMC7685627, “In vitro investigation of metabolic fate of α-mangostin and gartanin via skin permeation by LC-MS/MS and in silico evaluation of the metabolites by ADMET predictor™” (BMC Complementary Medicine and Therapies, 2020):
“Also recorded” adds a separate entry of the source.

Key:
HEKn cells [1] = test: Metabolites during permeation across HEKn cell monolayer by LC-MS/MS; type: in vitro ADME, human; conditions: positive scan mode
Method: Human epidermal keratinocyte (neonatal) (HEKn) (InvitrogenTM, Cat# C-001-5C Lot#1654391, Oregon, USA) cells were grown in T-25 flask at 37 °C in an atmosphere of 5% CO2. The adherent keratinocytes were cultured in low calcium (0.09 mM), serum-free, Epilife® medium, and supplement with Human Keratinocyte Growth Supplement (HKGS) at 1% v/v concentration. When a 500 ml of Epilife® medium was supplemented with HKGS the final concentration of the components in the supplement medium were: bovine pituitary extract (BPE) 0.2% v/v, bovine insulin 5 μg/ml, hydrocortisone 0.18 μg/ml, bovine transferrin 5 μg/ml and human epidermal growth factor 0.2 ng/ml. The medium was replaced regularly three times a week until the flask reaches 90% confluence (Fig. 2). The cells were moved from the flasks by incubating the monolayers with 0.5% trypsin for 2–3 min at 37 °C. The cells were collected into centrifuge tubes, and then centrifuged at 1000 rpm for 4 min and the pellets were resuspended in Epilife® medium. Cells used for this study were in third and fourth passage in late sub confluency.
HEKns cells were seeded at a density of 1 × 10^5 cells/cm^2 on permeable supports (Transwell® Costar, 0.4 μm pore size) as shown in Fig. 3. […] The integrity of the HEKns cell monolayer in the transwell plates was determined by measuring Trans Epithelial Electrical Resistance (TEER). […]

HEKn cells [2] = tested on: HEKn cells; set-up: method as in PMID 32615127; conditions: gartanin 9 μM, compound alone; previous experiments ref 16; cited from earlier work
CYP2C family of enzymes = tested on: CYP2C family of enzymes; set-up: method as in Foti et al. [20]; conditions: ref Foti et al. [20]; cited from earlier work
HEKn cells [3] = test: Papp, A-B from the previous permeation experiments; type: in vitro ADME, human; conditions: experimental Papp, A-B versus S+MDCK predicted Papp; previous experiments ref 16
CYP1A2 = tested on: CYP1A2; set-up: method as in Foti et al. [20]; conditions: ref Foti et al. [20]; cited from earlier work

SMILES | Metabolism identified by LC-MS/MS (HEKn cells [1]) | Papp, A-B (HEKn cells [2]) | Inhibition of CYP (CYP2C family of enzymes) | Papp, A-B from experiments lower than predicted Papp (HEKn cells [3]) [fold] | Metabolizing CYP isoform (CYP1A2)
CC(C)=CCc1c(O)c(CC=C(C)C)c2oc3c(O)ccc(O)c3c(=O)c2c1O [Gartanin] | might be conjugated to sulfated derivatives; also recorded: not found to be metabolized in phase I metabolism | could not be detected |  |  | 
COc1c(O)cc2oc3cc(O)c(CC=C(C)C)c(O)c3c(=O)c2c1CC=C(C)C [α-mangostin] | might be metabolized via tri-oxidation process |  | potent inhibited | 3 | metabolized primarily by CYP1A2
